14 molecules from ChEMBL document CHEMBL1155215, “Green chemoselective synthesis of thiazolo[3,2-a]pyridine derivatives and evaluation of their antioxidant and cytotoxic activities” (Bioorg Med Chem Lett, 2009) can be followed below.

Data set [1] can be described thus: Cytotoxicity against C57BL/6 mouse spleen lymphocytes assessed as inhibition of cell proliferation at 1 mg/ml after 48 hrs by MTT assay. It counts as tissue-based, Lymphocyte.
Data set [2] relates to Radical scavenging activity. Nature of the data set: Antioxidant activity assessed as DPPH free radical scavenging activity at 1 mg assessed per mg. It counts as functional. (In general: Loss of DPPH colour is used to gauge radical scavenging.)
The test system of another data set is HCT-116. In words: Cytotoxicity against human HCT116 cells assessed as inhibition of cell proliferation at 1 mg/ml after 48 hrs by MTT assay. It counts as functional. Particulars: HCT-116, 48 h.
A short description of data set [3]: Antioxidant activity assessed as hydroxyl free radical scavenging activity at 1 mg assessed per mg. It counts as functional.

As a reminder, the inhibition is the drop in the measured response relative to a control, in per cent. Turning to `N#CC1=C(N)N2C(=O)CSC2=C(C#N)C1c1ccc(Br)cc1` (centres undefined), the inhibition at 48 h, 1 mg/ml in data set [1] came out at 69.6%. The inhibition in data set [2] worked out at 67.7%. Besides, the inhibition at 1000 µg/mL with HCT-116 worked out at 43.5%.
Regarding `N#CC1=C(N)n2c(s/c(=C\c3ccc(Br)cc3)c2=O)=C(C#N)C1c1ccc(Br)cc1` (centres undefined), the inhibition at 48 h, 1 mg/ml in data set [1] worked out at 71.3%. The inhibition in data set [3] was found to be 125%; in data set [2] it was 108%. Moreover, the inhibition at 1000 µg/mL in the data set with HCT-116 was determined as 56.6%.
The like results for `N#CC1=C(N)n2c(s/c(=C\c3cccc([N+](=O)[O-])c3)c2=O)=C(C#N)C1c1cccc([N+](=O)[O-])c1` (centres undefined) were, in that order, 60.4%, 56.8%, 45.9% and 53%.
In the case of `N#CC1=C(N)N2C(=O)CSC2=C(C#N)C1c1ccccc1Cl` (centres undefined), in data set [1], the inhibition at 48 h, 1 mg/ml turned out to be 60.4%. Also, in the data set on HCT-116, the inhibition at 1000 µg/mL turned out to be 54.1%.
As to `N#CC1=C(N)n2c(s/c(=C\c3ccc(O)c([N+](=O)[O-])c3)c2=O)=C(C#N)C1c1ccc(O)c([N+](=O)[O-])c1` (centres undefined), in data set [1], the inhibition at 48 h, 1 mg/ml is 5.31%. In data set [2], the inhibition is 109%. For the same molecule, in the data set with HCT-116, the inhibition at 1000 µg/mL was 41.2%.
For the molecule `N#CC1=C(N)n2c(s/c(=C\c3cccs3)c2=O)=C(C#N)C1c1cccs1` (centres undefined), in data set [1], the inhibition at 48 h, 1 mg/ml was found to be 55.4%. The inhibition at 1000 µg/mL with HCT-116 was found to be 63.8%.
For `COc1ccc(C2C(C#N)=C(N)N3C(=O)CSC3=C2C#N)cc1` (centres undefined), the inhibition at 48 h, 1 mg/ml in data set [1] was 70.6%. In data set [2], the inhibition was 140%. Further, the inhibition at 1000 µg/mL in the data set with HCT-116 amounted to 50.2%.
For `N#CC1=C(N)N2C(=O)CSC2=C(C#N)C1c1ccccc1` (centres undefined), in data set [1], the inhibition at 48 h, 1 mg/ml worked out at 64.8%. For the same molecule, the inhibition at 1000 µg/mL in the data set with HCT-116 was determined as 50.8%.
Taken in the same sequence, the figures for `N#CC1=C(N)N2C(=O)CSC2=C(C#N)C1c1ccc2c(c1)OCO2` (centres undefined) were 62% and 51.8%.
Consider `O=C1O[C@H]([C@@H](O)CO)C(O)=C1O`, for which, in data set [3], the inhibition is 109%.
For the molecule `N#CC1=C(N)N2C(=O)CSC2=C(C#N)C1c1ccc(F)cc1` (centres undefined), in data set [1], the inhibition at 48 h, 1 mg/ml amounted to 66.9%. Besides, the inhibition at 1000 µg/mL in the data set on HCT-116 was 47.8%.
Take `N#CC1=C(N)N2C(=O)CSC2=C(C#N)C1c1ccc(Cl)cc1Cl` (centres undefined): the inhibition at 48 h, 1 mg/ml in data set [1] was determined as 55.4%. In addition, in the data set on HCT-116, the inhibition at 1000 µg/mL was found to be 29.9%.
With `Cc1ccc(C2C(C#N)=C(N)N3C(=O)CSC3=C2C#N)cc1` (centres undefined), the inhibition at 48 h, 1 mg/ml in data set [1] was found to be 63.8%. The inhibition at 1000 µg/mL in the data set on HCT-116 worked out at 47.4%.
The like results for `N#CC1=C(N)n2c(s/c(=C\c3ccc([N+](=O)[O-])cc3)c2=O)=C(C#N)C1c1ccc([N+](=O)[O-])cc1` (centres undefined) were, in that order, 51.7% and 35.5%.
